Read-outs that look alike come from different tables or passages of the source.

Data on 15 compounds can be found in patent US4287201A, “Anovulatory method and chicken feed compositions” (Merck & Co., Inc., priority 1980, dated 1981).

Assay [1] deals with laying hens. Kind of assay: Antigonadal Activity (ED20): ovarian weight of prime laying hens fed medicated diet for one week. The following applies: medicated diet for seven days, based on at least 8 hens at 2 dose levels. The class given is in vivo, laying hens (chicken). On the procedure:
Antigonadal Activity--(ED20)
Prime laying hens (7-12 months), whose egg production has been documented during the preceding 2 weeks, are fed medicated diet for one week at various dose levels. At the conclusion of the one week test, the hens are sacrificed and their reproductive system is excised, examined and weighed. The seven day medication level producing a 20 g ovarian weight, based on at least 8 hens at 2 dose levels is calculated and recorded as ED20.
*Seven day medication level producing a 20 g ovarian weight in laying hen
(based on at least 8 hens at 2 dose levels)

For assay [2], the system named is laying hens. The experiment in a line: Anovulatory Activity (EPI): egg production of prime laying hens fed medicated diet. The class given is in vivo, laying hens (chicken). Conditions: Gallus gallus, 192 h, read-out: EPI: Egg Production Index, % of control egg production for days 5 through 8. As for the experimental part:
Anovulatory Activity--(EPI)
Prime laying hens (7-12 months), whose egg production has been documented during the preceding 2 weeks, are fed diet containing medication at 100 ppm for 8 days. Egg production is recorded for days 5 through 8 while the birds are on test, and the Egg Production Index (EPI) is calculated as the % of control egg production for days 5 through 8 inclusive after start of oral medication at 100 ppm.
**Egg Production Index, % of control egg production for days 5 through 8
inclusive after start of oral medication at 100 ppm

As for `Cc1ccc(F)cc1N=C1NCCN1` [compound 8, 2-(5-fluoro-2-methylphenylimino)imidazolidine], in the assay with laying hens [1], the “ED20: seven day medication level producing a 20 g ovarian weight in laying hen” value (from here on “ED20 … in laying hen”) was 67 ppm. Further, in the assay with laying hens [2] (po), the response vs control in vivo at 100 ppm, 100 µg/mL was 24%.

With `Cc1ccc(N=C2NCCN2)c(C)c1` [compound 4], the “ED20 … in laying hen” value with laying hens [1] is listed as 50 ppm. In the assay with laying hens [2] (po), the response vs control in vivo at 100 ppm, 100 µg/mL came out at 24%.

Take `Clc1cccc(Cl)c1N=C1NCCN1` [compound 15]: in the assay with laying hens [1], the “ED20 … in laying hen” value was 400 ppm. Also, in the assay with laying hens [2] (hens, oral medication in diet at 100 ppm for 8 days, days 5 through 8 inclusive), the response vs control in vivo at 100 ppm, 100 µg/mL came out at 70%.

With `Cc1cc(C)c(N=C2NCCN2)c(C)c1` [compound 6, 2-(2,4,6-Trimethylphenylimino)imidazolidine], the “ED20 … in laying hen” value in the assay with laying hens [1] stood at 54 ppm. For the same compound, the response vs control in vivo at 100 ppm, 100 µg/mL in the assay on laying hens [2] (po) stood at 31%.

Take `Cc1ccccc1N=C1NCCN1` [compound 9]: the “ED20 … in laying hen” value in the assay on laying hens [1] was found to be 69 ppm. Moreover, in the assay on laying hens [2] (po), the response vs control in vivo at 100 ppm, 100 µg/mL was found to be 8%.

For the compound `Cc1cccc(N=C2NCCN2)c1C` [compound 12], in the assay on laying hens [1], the “ED20 … in laying hen” value is 181 ppm. The response vs control in vivo at 100 ppm, 100 µg/mL in the assay on laying hens [2] (po) came out at 86%.

In the case of `Cc1cccc(C)c1N=C1NCCN1` [compound 1, 2-(2,6-dimethylphenylimino)imidazolidine], in the assay with laying hens [1], the “ED20 … in laying hen” value was 38 ppm. The response vs control in vivo at 100 ppm, 100 µg/mL in the assay with laying hens [2] (po) came out at 18%.

As for `Cc1c(Cl)cccc1N=C1NCCN1` [compound 2, 2-(3-chloro-2-methylphenylimino)imidazolidine], in the assay with laying hens [1], the “ED20 … in laying hen” value is given as 38 ppm. Besides, the response vs control in vivo at 100 ppm, 100 µg/mL with laying hens [2] (po) came to 26%.

Consider `Cc1cccc(Cl)c1N=C1NCCN1` [compound 3, 2-(6-chloro-2-methylphenylimino)imidazolidine], for which the “ED20 … in laying hen” value in the assay on laying hens [1] amounted to 40 ppm. Moreover, the response vs control in vivo at 100 ppm, 100 µg/mL with laying hens [2] (po) was determined as 16%.

For `Cc1cc(Cl)ccc1N=C1NCCN1` [compound 5, 2-(4-chloro-2-methylphenylimino)imidazolidine], in the assay on laying hens [1], the “ED20 … in laying hen” value was determined as 53 ppm. For the same compound, the response vs control in vivo at 100 ppm, 100 µg/mL in the assay with laying hens [2] (po) was determined as 24%.

Take `CCc1cccc(CC)c1N=C1NCCN1` [compound 11]: the “ED20 … in laying hen” value in the assay on laying hens [1] came out at 151 ppm. Besides, the response vs control in vivo at 100 ppm, 100 µg/mL in the assay with laying hens [2] (po) turned out to be 31%.

For the compound `CCc1ccccc1N=C1NCCN1` [compound 10], the “ED20 … in laying hen” value in the assay on laying hens [1] is 83 ppm. The response vs control in vivo at 100 ppm, 100 µg/mL in the assay on laying hens [2] (po) amounted to 31%.

As to `Cc1cc(Br)ccc1N=C1NCCN1` [compound 7], the “ED20 … in laying hen” value in the assay with laying hens [1] is reported as 56 ppm. Moreover, the response vs control in vivo at 100 ppm, 100 µg/mL with laying hens [2] (po) was determined as 24%.

`Clc1ccccc1N=C1NCCN1` [compound 13, 2-(2-chlorophenylimino)imidazolidine]: the “ED20 … in laying hen” value in the assay on laying hens [1] amounted to 217 ppm. Further, in the assay with laying hens [2] (po), the response vs control in vivo at 100 ppm, 100 µg/mL was determined as 31%.

Regarding `Cc1ccc(C)c(N=C2NCCN2)c1` [compound 14], the “ED20 … in laying hen” value in the assay with laying hens [1] stood at 250 ppm. The response vs control in vivo at 100 ppm, 100 µg/mL with laying hens [2] (po) came out at 70%.
